Laboratory results published in paper PMC10065799, “High-throughput profiling of sequence recognition by tyrosine kinases and SH2 domains using bacterial peptide display” (eLife, 2023).

What was measured:
Test in all cases: pTyr-Var library bacterial peptide display kinase screen (enrichment scores)
c-Src kinase domain = c-Src kinase domain (Homo sapiens, UniProt P12931); type: biochemical; conditions: sheet "Src"
Fer kinase domain = type: biochemical, mouse; conditions: sheet "Fer"
EPHB2 kinase domain = type: biochemical, human; conditions: sheet EPHB2
c-Abl kinase domain = molecular target: T1, c-Abl kinase domain (Mus musculus, UniProt P00520); type: biochemical
T1 sequence (P00520 242-493 limits assumed): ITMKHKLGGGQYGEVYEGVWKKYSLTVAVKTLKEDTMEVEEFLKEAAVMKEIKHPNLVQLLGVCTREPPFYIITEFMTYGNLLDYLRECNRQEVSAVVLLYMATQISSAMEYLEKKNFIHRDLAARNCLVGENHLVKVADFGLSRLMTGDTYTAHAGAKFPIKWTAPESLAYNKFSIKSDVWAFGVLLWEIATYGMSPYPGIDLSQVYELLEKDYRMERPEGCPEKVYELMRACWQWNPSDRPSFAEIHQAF

EPHB1 kinase domain = type: biochemical, human; conditions: sheet EPHB1; effect of the variant peptide relative to its reference peptide in the pTyr-Var library screen (enrichment scores)
[1] = variant peptide versus its reference peptide in the pTyr-Var library screen
[2] = variant peptide relative to its reference peptide, pTyr-Var library screen enrichment
[3] = effect of variant peptide relative to its reference peptide in the pTyr-Var library screen (enrichment scores)
[4] = fig5-data2, sheet "Abl", Screen for the variant/reference peptide pair, pTyr-Var library
[5] = value of the variant peptide against its reference peptide in the pTyr-Var library screen with Fer
[6] = effect of the variant peptide relative to its reference peptide in the pTyr-Var library screen
[7] = sheet "Abl", effect of variant peptide relative to its reference peptide in pTyr-Var library screen (enrichment)
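Further: log2 fold change in enrichment of variant over reference.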

Sequence	Screen (c-Abl kinase domain; [4])	Screen (c-Src kinase domain; [1])	further results
LNPLIYTLRNA [OR4C46_Y285_K288R]	–	1.167	–
LRSRVYEVPVE [SLC26A3_Y756_N753S]	–	–	Screen (Fer kinase domain; [2]): -0.9023; Screen (EPHB2 kinase domain; [3]): -0.8191
NEKNIYGVPLM [BMPR2_Y247_R248G]	–	–	Screen (Fer kinase domain; [5]): 2.844; Screen (EPHB2 kinase domain; [3]): 2.247; Screen (c-Src kinase domain; [6]): 1.983
NHFKIYNLFAE [PTEN_Y68_C71Y_YF]	–	-1.146	–
NHFKRYNLCAE [PTEN_Y68_I67R_YF]	–	-2.549	–
NNRVFYGNSDC [RS1_Y177_R182C]	-1.349	–	–
PEPHIYAVADV [MYO9A_Y216_L211P]	–	0.7992	Screen (Fer kinase domain; [5]): 0.8588; Screen (EPHB2 kinase domain; [3]): 0.8276
PGDGEYFTLQI [TP53_Y327_L323G]	–	0.07795	–
PKSLFYLLLKP [TRPC6_Y775_L780P]	–	-1.15	Screen (Fer kinase domain; [2]): -0.7977; Screen (EPHB2 kinase domain; effect of the variant relative to its reference peptide in the pTyr-Var library screen): -1.737
PLDEEYFTLQI [TP53_Y327_G325E]	–	-0.5709	Screen (c-Abl kinase domain; [7]): -1.267
PLDGEYSTLQI [TP53_Y327_F328S]	–	-0.3767	Screen (Fer kinase domain; [2]): 1.6
PLDGEYVTLQI [TP53_Y327_F328V]	–	-2.053	Screen (c-Abl kinase domain; [7]): -0.6513
PLDVEYFTLQI [TP53_Y327_G325V]	–	-0.5097	Screen (c-Abl kinase domain; [7]): -0.7642
PLQKIYNFNVL [SLC4A1_Y553_T552I_YF]	–	2.735	–
PPDGEYFTLQI [TP53_Y327_L323P]	–	0.5031	–
PQIVNYSPDCI [LDHB_Y128_K127N]	-0.6074	–	–
PSDLLYIPDIQ [ITGA2B_Y845_L847P]	–	–	Screen (c-Src kinase domain; [6]): -2.46
PVQAAYQKVEA [HBB_Y131_V135E]	-0.9436	–	–

Sequence	Screen (c-Abl kinase domain; [4])	Screen (c-Src kinase domain; [1])	further results
QFKGKYLAKHN [CASK_Y712_D710G_YF]	0.5412	–	–
QMVDMYASSFM [AVPR2_Y124_G122D_YF]	–	–	Screen (c-Src kinase domain; [6]): 0.5236
RQNNSYTCFTA [SLC20A2_Y386_R382Q_YF]	–	-1.243	Screen (EPHB2 kinase domain; [3]): -1.481
SDMGQYQCLVF [AXL_Y115_T112M]	–	–	Screen (Fer kinase domain; [5]): 0.2934; Screen (c-Src kinase domain; [6]): 0.2602
SSWPDYVRPLP [HSPB1_Y54_G53D]	–	–	Screen (EPHB1 kinase domain): 1.698
STTSDYQWDFS [MTDH_Y364_V368F]	-0.6152	–	–
SVETPYVSVTF [NDRG2_Y47_G48V]	–	-1.163	Screen (Fer kinase domain; [5]): -1.711
SVMAEYGLFAA [VSX2_Y219_G223A_YF]	–	-0.3175	–
SVTCTYPPALN [TP53_Y126_S127P]	–	–	Screen (c-Abl kinase domain; [7]): 1.141
TDGIAYEFRVT [TTN_Y22256_I22261T]	–	–	Screen (c-Abl kinase domain; [7]): -3.408
TESALYGCTIL [MAP3K21_Y724_V728I]	–	–	Screen (Fer kinase domain; [5]): -0.01841; Screen (c-Src kinase domain; [6]): 0.3601
TLLAFYMGNFS [GLB1_Y552_P549L]	-0.5504	–	–
TVLEPYTDPFF [ZC3H18_Y367_A368T_YF]	–	–	Screen (c-Abl kinase domain; [7]): 2.315
VEEDTYTMPST [PTK2_Y407_D402V]	–	0.7074	–
VIVRMYDFHVL [RPF2_Y109_G106V_YF]	–	–	Screen (Fer kinase domain; [2]): -0.9951; Screen (EPHB2 kinase domain; [3]): 1.263
VNFDFYTVNLG [GFPT1_Y367_D366Y_YF]	–	–	Screen (c-Src kinase domain; [6]): 0.9419
WAMPAYNRSKL [WWOX_Y293_L291P]	–	–	Screen (c-Abl kinase domain; [7]): 4.174
WKEREYEVVRD [CPS1_Y634_I632R]	–	–	Screen (EPHB2 kinase domain; [3]): 0.9502

Further lines, with some results ahead:

Screen (c-Abl kinase domain; [4])	Sequence	Screen (c-Src kinase domain; [1])	further results
-1.545	LSCLAYSGKDA [FXN_Y205_S202C]	–	–
0.5114	LWKWRYEELKE [CCDC102B_Y299_K298R]	–	–
-0.2235	NCLRVYVAGRF [CRB1_Y711_E710V]	–	–
1.339	PFQGAYLKINK [MYO1B_Y967_E969K]	–	–
-1.096	PIPIKYKAMKK [MYD88_Y257_L252P]	–	–
0.8954	PVFEVYPLLNC [GATA1_Y78_Q76E]	–	–
1.325	QQIFTYDSGIH [JUP_Y22_T19I_YF]	–	–
0.7285	REGDKYVSHGA [ASS1_Y113_A111D]	–	–
0.544	RLLVVYTWTQR [HBB_Y36_P37T]	–	–
-1.342	SRNSKYNAEST [PSEN1_Y315_K311R]	–	–
1.901	TEALFYTDDPA [ADPRS_Y75_T79P_YF]	–	–
0.4399	VGAKTYKMSMA [CPS1_Y309_A304V]	–	–
0.9527	VPHECYAKVFD [ALB_Y394_D389V]	–	–
1.283	VRFMAYTDETC [F8_Y450_F455C]	–	–
-0.4723	VRHRHYKHTHE [CTCF_Y343_R342H]	–	–
